Assay results: ChEMBL document CHEMBL1201862, “PubChem BioAssay data set” (2004)
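Grown in 96-well plates, cells were treated for 48 hours with each compound at five concentrations. Insufficient inhibition: endpoint recorded as highest concentration tested. GI50: concentration for 50% inhibition of growth.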 Activity calls are given as the source filed them. No stated cut-off is given here; in the data, active = GI50 up to about 1.1 µM and inactive = higher.

Assays:
Assay in all cases: DTP human tumour cell line panel, 48 h
[1] = system: MCF7
[2] = system: U-251
[3] = system: SK-MEL-28
[4] = system: UACC-257
[5] = system: NCI-H226
[6] = system: SW-620
[7] = system: Malme-3M
[8] = system: Hs-578T
[9] = system: SK-MEL-2
[10] = system: UO-31
[11] = system: HT-29
[12] = system: K562
[13] = system: A549
[14] = system: HOP-92
[15] = system: OVCAR-3
[16] = system: HCT-15
[17] = system: SK-MEL-5
[18] = system: SF-268
[19] = system: HOP-62
[20] = system: EKVX

CCOC(=O)c1c(NCc2ccccc2)n(-c2ccccc2)c(=S)n(-c2ccccc2)c1=O
GI50 [1]: 53.3 µM (inactive)
GI50 [2]: > 100 µM (inactive)
GI50 [3]: > 100 µM (inactive)
GI50 [4]: > 100 µM (inactive)
GI50 [5]: > 100 µM (inactive)
GI50 [6]: > 100 µM (inactive)
GI50 [7]: > 100 µM (inactive)
GI50 [8]: 19.5 µM (inactive)
GI50 [9]: > 100 µM (inactive)
GI50 [10]: 45.8 µM (inactive)
GI50 [11]: 40.4 µM (inactive)
GI50 [12]: 41.1 µM (inactive)
GI50 [13]: 91.6 µM (inactive)
GI50 [14]: > 100 µM (inactive)
GI50 [15]: > 100 µM (inactive)
GI50 [16]: 63.1 µM
GI50 [17]: 94.6 µM (inactive)
GI50 [18]: > 100 µM (inactive)

Nn1c(CCCCCCCCc2nnc(-c3c(O)ccc4ccccc34)n2N)nnc1-c1c(O)ccc2ccccc12
GI50 [1]: > 100 µM (inactive)
GI50 [2]: > 100 µM (inactive)
GI50 [3]: > 100 µM (inactive)
GI50 [4]: > 100 µM (inactive)
GI50 [5]: > 100 µM (inactive)
GI50 [6]: > 100 µM (inactive)
GI50 [19]: > 100 µM (inactive)
GI50 [7]: > 100 µM (inactive)
GI50 [8]: > 100 µM (inactive)
GI50 [9]: > 100 µM (inactive)
GI50 [10]: > 100 µM (inactive)
GI50 [11]: > 100 µM (inactive)
GI50 [13]: > 100 µM (inactive)
GI50 [14]: > 100 µM (inactive)
GI50 [15]: > 100 µM (inactive)
GI50 [16]: > 100 µM
GI50 [17]: > 100 µM (inactive)
GI50 [18]: > 100 µM (inactive)

O=C(O)CCCc1ccc2c(c1)CC1(C2)Cc2ccc(CCCC(=O)O)cc2C1
GI50 [1]: > 100 µM (inactive)
GI50 [2]: > 100 µM (inactive)
GI50 [4]: > 100 µM (inactive)
GI50 [5]: > 100 µM (inactive)
GI50 [19]: > 100 µM (inactive)
GI50 [7]: > 100 µM (inactive)
GI50 [8]: > 100 µM (inactive)
GI50 [9]: > 100 µM (inactive)
GI50 [10]: > 100 µM (inactive)
GI50 [11]: > 100 µM (inactive)
GI50 [12]: > 100 µM (inactive)
GI50 [13]: > 100 µM (inactive)
GI50 [14]: > 100 µM (inactive)
GI50 [15]: > 100 µM (inactive)
GI50 [20]: > 100 µM (inactive)
GI50 [16]: > 100 µM
GI50 [17]: 54 µM (inactive)

CC[C@@]1(O)C(=O)OCc2c1cc1n(c2=O)Cc2c-1nc1ccccc1c2/C=N\NC(=O)C(C)N (stereo not given in full)
GI50 [1]: < 0.022 µM (active)
GI50 [2]: < 0.0195 µM (active)
GI50 [3]: 17.8 µM (inactive)
GI50 [4]: 1.37 µM (inactive)
GI50 [5]: 0.33 µM (active)
GI50 [6]: 1.37 µM (inactive)
GI50 [19]: < 0.0266 µM (active)
GI50 [7]: 1.64 µM (inactive)
GI50 [8]: 11.9 µM (inactive)
GI50 [9]: 13.1 µM (inactive)
GI50 [10]: 0.182 µM (active)
GI50 [11]: 1.63 µM (inactive)
GI50 [13]: 0.405 µM (active)
GI50 [14]: 0.179 µM (active)
GI50 [15]: 7.06 µM (inactive)
GI50 [20]: 11.9 µM (inactive)
GI50 [16]: 4.29 µM
GI50 [17]: 0.238 µM (active)
GI50 [18]: < 0.017 µM (active)

Cc1nn(C(=O)c2ccc(Cl)cc2)c2c1C(c1ccccc1O)SC(=N)N2 (stereo not given)
GI50 [1]: > 10 µM (inactive)
GI50 [2]: > 10 µM (inactive)
GI50 [3]: > 10 µM (inactive)
GI50 [4]: > 10 µM (inactive)
GI50 [5]: > 10 µM (inactive)
GI50 [6]: > 10 µM (inactive)
GI50 [19]: > 10 µM (inactive)
GI50 [7]: > 10 µM (inactive)
GI50 [8]: > 10 µM (inactive)
GI50 [9]: > 10 µM (inactive)
GI50 [11]: > 10 µM (inactive)
GI50 [12]: > 10 µM (inactive)
GI50 [13]: > 10 µM (inactive)
GI50 [14]: > 10 µM (inactive)
GI50 [15]: > 10 µM (inactive)
GI50 [20]: > 10 µM (inactive)
GI50 [16]: > 10 µM
GI50 [17]: > 10 µM (inactive)
GI50 [18]: > 10 µM (inactive)

Cc1nn(C(=O)c2ccncc2)c2c1C(c1cccc([N+](=O)[O-])c1)SC(=N)N2 (stereo not given)
GI50 [1]: > 10 µM (inactive)
GI50 [2]: > 10 µM (inactive)
GI50 [3]: > 10 µM (inactive)
GI50 [4]: > 10 µM (inactive)
GI50 [5]: > 10 µM (inactive)
GI50 [6]: > 10 µM (inactive)
GI50 [19]: > 10 µM (inactive)
GI50 [7]: > 10 µM (inactive)
GI50 [8]: > 10 µM (inactive)
GI50 [9]: > 10 µM (inactive)
GI50 [11]: > 10 µM (inactive)
GI50 [12]: > 10 µM (inactive)
GI50 [13]: > 10 µM (inactive)
GI50 [14]: > 10 µM (inactive)
GI50 [15]: > 10 µM (inactive)
GI50 [20]: > 10 µM (inactive)
GI50 [16]: > 10 µM
GI50 [17]: > 10 µM (inactive)
GI50 [18]: > 10 µM (inactive)
